In PMC6269910 (Molecules, 2013):

What was measured:
LPO = LPO (TBARS) level in liver, kidney, colon, brain; assay type: in vivo, mice; conditions: 72 h
Method: Tissue samples were homogenized with ice-cold 150 mM KCl for the determination of LPO and glutathione (GSH) levels. The LPO levels were assayed by monitoring TBARS formation as described above.

[1] = test system: acetic acid-induced abdominal constriction; experiment: Acetic acid-induced writhing (Koster) test; assay type: in vivo, mice; conditions: 100 mg/kg oral
Method: Test samples, suspended in a mixture of distilled water and 0.5% sodium carboxymethyl cellulose (CMC), were given orally to the animals. The control group animals received the same experimental handling as those of the test groups, except that the drug treatment was replaced with appropriate volumes of the dosing vehicle. […] One hour after oral administration of test sample, each mouse was injected intraperitoneally with 3% (w/v) acetic acid solution (0.1 mL/10 g, bw). Starting 5 min after the acetic acid injection, the number of muscular contractions on mice were counted for a period of 10 min. A significant reduction in the number of writhings by any treatment as compared to the number of writhings in control animals was considered a positive analgesic response. The analgesic activity was expressed as a percentage change from writhing controls. ASA was used as a reference compound and administered at 200 mg/kg.

## CCNC(=S)NS(=O)(=O)c1ccc(-n2nc(C(F)(F)F)cc2-c2ccc(C)cc2)cc1 [Compound 1a, N-(Ethylcarbamothioyl)-4-[5-(4-methylphenyl)-3-(trifluoromethyl)-1H-pyrazol-1-yl] benzenesulfonamide]
LPO; brain, 100 mg/kg oral
  LPO: 8.36 ± 2.61 nmol/g tissue
LPO; brain, 200 mg/kg oral
  LPO: 9.40 ± 2.08 nmol/g tissue
LPO; colon, 100 mg/kg oral
  LPO: 8.66 ± 2.23 nmol/g tissue
LPO; colon, 200 mg/kg oral
  LPO: 11.04 ± 2.11 nmol/g tissue
LPO; kidney, 100 mg/kg oral
  LPO: 10.96 ± 2.01 nmol/g tissue
LPO; kidney, 200 mg/kg oral
  LPO: 12.56 ± 2.96 nmol/g tissue
LPO; liver, 100 mg/kg oral
  LPO: 9.78 ± 1.30 nmol/gtissue
LPO; liver, 200 mg/kg oral
  LPO: 13.72 ± 3.05 nmol/gtissue
[1]
  Writhing test (% inh.): 67.8%
[1]; writhings counted 10 min from 5 min after acetic acid
  Writhing test (Mean ± SEM): 5.6 ± 0.9
